Assay results from ChEMBL document CHEMBL3352395, “Quantitative structure-activity relationship of antifungal activity of rosin derivatives” (2015).

How the values were obtained:
[1] = test system: Trametes versicolor; assay: Antifungal activity against Trametes versicolor after 3 to 5 days by paper disc method relative to 1227; format: functional
[2] = test system: Gloeophyllum trabeum; assay: Antifungal activity against Gloeophyllum trabeum after 3 to 5 days by paper disc method relative to 1227; format: functional

SMILES | Ratio [1] | log(ratio) [1] | Ratio [2] | log(ratio) [2] | inhibition zone (IZ) [1] [mm] | inhibition zone (IZ) [2] [mm]
CC(C)C1=CC2=CC[C@@H]3[C@](C)(CCC[C@@]3(C)C(=O)OCC(O)C[N+](C)(C)CC3CO3)[C@H]2CC1 (stereo not given in full) | 46.67 | 1.669 | 63.64 | 1.8037 |  | 
CC(C)c1ccc2c(c1)CC[C@H]1[C@](C)(C(=O)OCC(O)C[N+](C)(C)C)CCC[C@]21C (stereo not given in full) | 60 | 1.7782 | 81.82 | 1.9128 |  | 
CC[N+](CC)(CC)CC(O)COC(=O)C1C2C[C@H]3C(C=C2C(C)C)(CC[C@@H]2[C@]3(C)CCC[C@@]2(C)C(=O)OCC(O)C[N+](CC)(CC)CC)C1C(=O)OCC(O)C[N+](CC)(CC)CC.[Cl-].[Cl-].[Cl-] (stereo not given in full) | 86.7 |  | 95.5 |  | 26 | 21
CC(C)C1=CC23CC[C@@H]4[C@](C)(CCC[C@@]4(C)C(=O)OCC(O)CN(C)C)[C@H]2CC1CC3C(=O)OCC(O)CN(C)C (stereo not given in full) | 46.67 | 1.669 | 59.09 | 1.7715 |  | 
CCOC(=O)[C@]1(C)CCC[C@@]2(C)[C@H]1CC=C1C=C(C(C)C)CC[C@@H]12 | 26.67 | 1.426 | 36.36 | 1.5607 |  | 
CC(C)c1ccc2c(c1)CC[C@H]1[C@](C)(C(=O)OCC(O)CCl)CCC[C@]21C (stereo not given in full) | 30 | 1.4771 | 40.91 | 1.6118 |  | 
CC(C)C1=CC23CC[C@@H]4[C@](C)(CCC[C@@]4(C)C(=O)O)[C@H]2CC1CC3C(=O)O (stereo not given in full) | 26.67 | 1.426 | 36.36 | 1.5607 |  | 
CC(C)C1CC[C@H]2C(CC[C@@H]3[C@]2(C)CCC[C@@]3(C)C(=O)OCC(O)CCl)C1 (stereo not given in full) | 26.67 | 1.426 | 36.36 | 1.5607 |  | 
CC(C)C1=CC2=CC[C@@H]3[C@](C)(CCC[C@@]3(C)C(=O)O)[C@H]2CC1 [ABIETIC ACID] | 26.67 | 1.426 | 36.36 | 1.5607 |  | 
CC(C)C1CC[C@H]2C(CC[C@@H]3[C@]2(C)CCC[C@@]3(C)C(=O)OCC(O)C[N+](C)(C)C)C1 (stereo not given in full) | 53.33 | 1.727 | 59.09 | 1.7715 |  | 
CC(C)c1ccc2c(c1)CC[C@H]1[C@](C)(C(=O)OCC(O)C[N+](C)(C)CC3CO3)CCC[C@]21C (stereo not given in full) | 50 | 1.699 | 77.27 | 1.888 |  | 
CC(C)C1=CC23CC[C@@H]4[C@](C)(CCC[C@@]4(C)C(=O)OCC(O)CCl)[C@H]2CC1CC3C(=O)OCC(O)CCl (stereo not given in full) | 26.67 | 1.426 | 36.36 | 1.5607 |  | 
CC[N+](CC)(CC)CC(O)COC(=O)[C@]1(C)CCC[C@]2(C)c3ccc(C(C)C)cc3CC[C@@H]12 (stereo not given in full) | 56.67 | 1.7533 | 81.82 | 1.9128 |  | 
CC[N+](CC)(CC)CC(O)COC(=O)[C@]1(C)CCC[C@@]2(C)[C@H]1CCC1CC(C(C)C)CC[C@@H]12 (stereo not given in full) | 56.67 | 1.7533 | 59.09 | 1.7715 |  | 
CC(C)C1CC[C@H]2C(CC[C@@H]3[C@]2(C)CCC[C@@]3(C)C(=O)O)C1 (stereo not given in full) | 26.67 | 1.426 | 36.36 | 1.5607 |  | 
CC(C)C1=CC2=CC[C@@H]3[C@](C)(CCC[C@@]3(C)C(=O)OCC(O)C[N+](C)(C)CC[N+](C)(C)CC(O)COC(=O)[C@]3(C)CCC[C@@]4(C)[C@H]3CC=C3C=C(C(C)C)CC[C@@H]34)[C@H]2CC1 (stereo not given in full) | 56.67 | 1.7533 | 72.73 | 1.8617 |  | 
CC(C)C1=CC2=CC[C@@H]3[C@](C)(CCC[C@@]3(C)C(=O)OCC(O)CCl)[C@H]2CC1 (stereo not given in full) | 26.67 | 1.426 | 36.36 | 1.5607 |  | 
CC(C)C1=CC23CC[C@@H]4[C@](C)(CCC[C@@]4(C)C(=O)OCC(O)C[N+](C)(C)C)[C@H]2CC1CC3C(=O)OCC(O)C[N+](C)(C)C (stereo not given in full) | 70 | 1.8451 | 81.82 | 1.9128 |  | 
CC[N+](CC)(CC)CC(O)COC(=O)C1CC2C[C@H]3C1(C=C2C(C)C)CC[C@@H]1[C@]3(C)CCC[C@@]1(C)C(=O)OCC(O)C[N+](CC)(CC)CC (stereo not given in full) | 66.67 | 1.8239 | 77.27 | 1.888 |  | 
CC[N+](CC)(CC(O)COC(=O)C1CC2C[C@H]3C1(C=C2C(C)C)CC[C@@H]1[C@]3(C)CCC[C@@]1(C)C(=O)OCC(O)C[N+](CC)(CC)CC1CO1)CC1CO1 (stereo not given in full) | 63.33 | 1.8016 | 77.27 | 1.888 |  | 
CC[N+](CC)(CC(O)COC(=O)[C@]1(C)CCC[C@@]2(C)[C@H]1CCC1CC(C(C)C)CC[C@@H]12)CC1CO1 (stereo not given in full) | 40 | 1.6021 | 59.09 | 1.7715 |  | 
CC(C)c1ccc2c(c1)CC[C@H]1[C@](C)(C(=O)O)CCC[C@]21C [DEHYDROABIETIC ACID] | 30 | 1.4771 | 40.91 | 1.6118 |  | 
CCN(CC)CC(O)COC(=O)[C@]1(C)CCC[C@@]2(C)[C@H]1CCC1CC(C(C)C)CC[C@@H]12 (stereo not given in full) | 33.33 | 1.5229 | 50 | 1.699 |  | 
CC(C)C1=CC23CC[C@@H]4[C@](C)(CCC[C@@]4(C)C(=O)OCC(O)C[N+](C)(C)CC4CO4)[C@H]2CC1CC3C(=O)OCC(O)C[N+](C)(C)CC1CO1 (stereo not given in full) | 60 | 1.7782 | 77.27 | 1.888 |  | 
CC(C)c1ccc2c(c1)CC[C@H]1[C@](C)(C(=O)OCC(O)CN(C)C)CCC[C@]21C (stereo not given in full) | 43.33 | 1.6368 | 68.18 | 1.8337 |  | 
